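1) Cells in 96-well plates. 2) Compound, 48 h, 5 concentrations. 3) Linear interpolation between surrounding doses. 4) Unreached endpoint = highest concentration. Here, GI50 denotes the concentration required for 50% inhibition of growth. At the TGI there is no net growth.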

The record followed here is PubChem BioAssay (NCI).

Some test systems named below: NCI/ADR-RES ovarian; OVCAR-4 ovarian; SR leukemia; U251 CNS; SN12C renal; HOP-92 NSCLC; EKVX NSCLC; NCI-H226 lung; HCT-15 colon; HL-60(TB) leukemia.
Holding throughout (assay): inhibition of tumour cell growth, NCI panel, 48 h

In the case of `Cc1cc(S(=O)(=O)Nc2nc3cc(Cl)ccc3o2)c(SCc2ccccc2)cc1Cl`, the GI50 in the test with NCI/ADR-RES ovarian was 28.5 µM; in the test on OVCAR-4 ovarian it was 25.6 µM; with SR leukemia, 46 µM; in the test with U251 CNS, 19.2 µM; with SN12C renal it was 22 µM; in the test on HOP-92 NSCLC, 18.7 µM. The GI50 was 17.8 µM in the test with EKVX NSCLC, 38.5 µM with NCI-H226 lung and 8.28 µM with HCT-15 colon. Also, the TGI is 66.2 µM in the test on NCI/ADR-RES ovarian; 74.7 µM in the test on OVCAR-4 ovarian; over 100 µM in the test on SR leukemia; 37.1 µM in the test with U251 CNS; 49.5 µM in the test on SN12C renal; 39.1 µM with HOP-92 NSCLC. In addition, the figures for the TGI in the test on EKVX NSCLC, with NCI-H226 lung and in the test with HCT-15 colon were 37 µM, over 100 µM and 25 µM, respectively.
With `COc1cc(/C=N\O)nc(-c2ccccn2)c1`, the TGI with NCI/ADR-RES ovarian is over 49.6 µM; with OVCAR-4 ovarian it was over 100 µM; in the test on SR leukemia, 0.453 µM; in the test with U251 CNS, over 100 µM; in the test with HL-60(TB) leukemia, over 35.5 µM; in the test with HOP-92 NSCLC, over 100 µM. Also, the TGI in the test on EKVX NSCLC was 23.5 µM; in the test on HCT-15 colon, over 100 µM.
As to `CCOc1cc(C(C)(C)C)ccc1C1=N[C@@](C)(c2ccc(Cl)cc2)[C@@](C)(c2ccc(Cl)cc2)N1C(=O)N1CCN(CCS(C)(=O)=O)CC1`, the GI50 in the test on NCI/ADR-RES ovarian is 4.09 µM; with OVCAR-4 ovarian it was 2.68 µM; with SR leukemia it was 0.198 µM; in the test on U251 CNS, 2.89 µM; in the test with SN12C renal, 3.31 µM; with HL-60(TB) leukemia, 2.21 µM. Further, the values for the GI50 in the test with HOP-92 NSCLC, in the test on NCI-H226 lung and in the test with HCT-15 colon were 2.28 µM, 0.5 µM and 2.27 µM, respectively. The TGI was 24.4 µM in the test on NCI/ADR-RES ovarian; 38.3 µM in the test on OVCAR-4 ovarian; 5.26 µM in the test with SR leukemia; 8.52 µM with U251 CNS; 12.8 µM in the test on SN12C renal; 5.22 µM in the test with HL-60(TB) leukemia. In addition, the TGI in the test with HOP-92 NSCLC was 8.82 µM; in the test with NCI-H226 lung, 2.13 µM; in the test with HCT-15 colon, 5.79 µM.
In the case of `COc1cc(-c2nn(-c3ccc(NC(=O)c4cc(Cl)cc(Cl)c4)cc3)cc2-c2ccncc2)ccc1Cl`, the GI50 in the test with NCI/ADR-RES ovarian was over 100 µM; in the test with OVCAR-4 ovarian, over 100 µM; with SR leukemia, over 100 µM; with U251 CNS, 6.23 µM; in the test on SN12C renal it was over 100 µM; with HL-60(TB) leukemia it was 5.82 µM. Besides, the GI50 in the test on HOP-92 NSCLC, in the test on EKVX NSCLC and in the test on NCI-H226 lung was over 100 µM throughout. The TGI in the test on NCI/ADR-RES ovarian, in the test with OVCAR-4 ovarian, in the test with SR leukemia, with U251 CNS, with SN12C renal and in the test on HL-60(TB) leukemia was over 100 µM each time. In addition, the TGI with HOP-92 NSCLC, in the test with EKVX NSCLC and with NCI-H226 lung was over 100 µM in each case.
`Cc1nnc(-c2ccc(-c3nc4ccccc4o3)cc2)o1`: the GI50 in the test on NCI/ADR-RES ovarian is over 100 µM; with SR leukemia it was 25.8 µM; with U251 CNS, 16.4 µM; in the test on SN12C renal, over 100 µM; in the test on HL-60(TB) leukemia it was 56.8 µM; in the test on HOP-92 NSCLC, over 100 µM. For the same compound, the GI50 was 85 µM in the test with EKVX NSCLC and 70.8 µM in the test with HCT-15 colon. Besides, the TGI was over 100 µM in the test with NCI/ADR-RES ovarian; 68 µM in the test on SR leukemia; 34.8 µM in the test with U251 CNS; over 100 µM in the test with SN12C renal; over 100 µM in the test with HL-60(TB) leukemia; over 100 µM in the test with HOP-92 NSCLC. Moreover, the TGI with EKVX NSCLC and in the test on HCT-15 colon was over 100 µM in each case.
On to `Oc1ccc(Cl)cc1-c1cc(-c2ccc(F)cc2)n[nH]1`, for which the GI50 in the test on NCI/ADR-RES ovarian is 2.19 µM; in the test on OVCAR-4 ovarian, 0.593 µM; in the test with SR leukemia, 1.24 µM; with U251 CNS, 2.1 µM; with SN12C renal, 2.61 µM; in the test on HL-60(TB) leukemia, 3.6 µM. Moreover, the values for the GI50 in the test on EKVX NSCLC, with NCI-H226 lung and in the test on HCT-15 colon were 1.4 µM, 2.57 µM and 0.416 µM, respectively. For the same compound, the TGI with NCI/ADR-RES ovarian was 6.98 µM; with OVCAR-4 ovarian, over 100 µM; in the test with SR leukemia, over 100 µM; with U251 CNS, 5 µM; in the test on SN12C renal, 13.3 µM; with HL-60(TB) leukemia, 21.5 µM. Further, the TGI is 14 µM in the test on EKVX NSCLC, 12.9 µM in the test on NCI-H226 lung and 22.5 µM in the test with HCT-15 colon.
`COc1cc2c(cc1OC)-c1ncc3cc4c(cc3c1C2)OCO4`: the GI50 in the test with NCI/ADR-RES ovarian was 24.8 µM; with OVCAR-4 ovarian, 57.3 µM; in the test on SR leukemia it was 2.7 µM; in the test with U251 CNS it was 41.4 µM; in the test with SN12C renal, over 100 µM; in the test with HL-60(TB) leukemia, 10.3 µM. In addition, the GI50 with HOP-92 NSCLC is over 100 µM; in the test on EKVX NSCLC, 22 µM; with HCT-15 colon, over 100 µM. For the same compound, the TGI in the test with NCI/ADR-RES ovarian was 49.6 µM; in the test with OVCAR-4 ovarian, over 100 µM; with SR leukemia it was 15.3 µM; in the test on U251 CNS, over 100 µM; with SN12C renal it was over 100 µM; in the test with HL-60(TB) leukemia, 22 µM. The TGI was over 100 µM in the test with HOP-92 NSCLC, 72.3 µM in the test with EKVX NSCLC and over 100 µM in the test on HCT-15 colon.
For the compound `ClCC#CCSc1ncnc2c1ncn2CC#CCCl`, the GI50 is 1.77 µM in the test on NCI/ADR-RES ovarian; 2.12 µM with OVCAR-4 ovarian; 0.432 µM with SR leukemia; 1.32 µM with U251 CNS; 1.55 µM with SN12C renal; 1.99 µM with HL-60(TB) leukemia. Also, the GI50 in the test with EKVX NSCLC is 1.9 µM; in the test with HCT-15 colon, 1.68 µM. Besides, the TGI worked out at 4.92 µM in the test with NCI/ADR-RES ovarian; 8.29 µM in the test with OVCAR-4 ovarian; 13.8 µM in the test with SR leukemia; 3.04 µM with U251 CNS; 3.65 µM in the test on SN12C renal; 5.73 µM in the test with HL-60(TB) leukemia. Moreover, the TGI in the test with EKVX NSCLC came to 4.2 µM; in the test on HCT-15 colon, 5.97 µM.
As to `O=C(c1ccccc1)C1C(C(=O)c2ccccc2)C(c2ccccc2)N(c2ccccc2)C1c1ccccc1` (centres undefined), the TGI with NCI/ADR-RES ovarian, in the test with SR leukemia, with U251 CNS, with SN12C renal, in the test on HL-60(TB) leukemia and in the test on HOP-92 NSCLC was over 100 µM in each case. Moreover, the TGI in the test with EKVX NSCLC, in the test with NCI-H226 lung and in the test with HCT-15 colon was over 100 µM each time.
